Measured values: publication PMC7351617 (Journal of neurochemistry, 2020)
Like-named read-outs stand apart in the source and are kept apart here.

Assays:
[1] = tested on: rat adrenal chromaffin cells (native α3β4* / α3β2β4 nAChRs); settings: SD
[2] = tested on: α7 nAChRs of rat adrenal chromaffin cells; format: cell-based

## CC(=O)OCC[N+](C)(C)C [ACh, Acetylcholine (ACh) chloride]
[1]
  ACh-evoked currents: −2730 ± 1789 pA
[1]; n=7
  ACh-evoked currents: −3992 ± 1649 pA

## COc1cc(OC)c(NC(=O)Nc2cc(C)on2)cc1Cl [PNU120596]
[2]
  cells with detectable PNU282987-evoked currents in the presence of PNU120596: 24/28
[2]; SD
  PNU282987-evoked current amplitude in the presence of PNU120596: −1275 ± 1668 pA
  increase in PNU282987-evoked current amplitudes in the presence of PNU120596: 54 ± 99 fold

## Cl.O=C(N[C@H]1CN2CCC1CC2)c1ccc(Cl)cc1 [PNU282987, N-[(3R)-1-Azabicyclo[2.2.2]oct-3-yl]-4-chlorobenzamide hydrochloride]
[2]
  PNU282987-evoked current amplitudes in some cells (relatively small): 10–20 pA
  cells in which PNU282987 evoked currents: 18/28
[2]; SD
  PNU282987-evoked current amplitude before PNU120596: −29 ± 38 pA
